Test results reported in patent US20250230193A1, “CYCLIC COMPOUND HAVING SELECTIVE KRAS INHIBITORY EFFECT ON HRAS AND NRAS” (CHUGAI SEIYAKU KABUSHIKI KAISHA, priority 2022, published 2025).
*1 amine or outer side, *2 acyl side, *3 side chain or, on linkers, in order; H or OH if unused. Where a SMILES comes first, the peptide text is derived from it. Bridges are numbered along the chain shown (N, C = ends). [ ]: non-standard residue; d: D form. The star is where a group is joined. hPhe(3-Cl-4-CF3) = N[C@@H](CCc1ccc(C(F)(F)F)c(Cl)c1)C(=O)O; NPrPhe(4-CF3) = CCCN[C@@H](Cc1ccc(C(F)(F)F)cc1)C(=O)O; NEtAsp = CCN([C@@H](CC(=O)[*:3])C(=O)[*:2])[*:1]; NMeGly(cPent) = CN[C@H](C(=O)O)C1CCCC1; NMeL = CN[C@@H](CC(C)C)C(=O)O; Morpholide = C1CN(*)CCO1; Ac5c = NC1(C(=O)O)CCCC1; Sar = CNCC(=O)O

Columns and labels:
[1] = target: GDP-bound NRAS wild-type protein (Homo sapiens, UniProt P01111); assay: Binding to NRAS by surface plasmon resonance (SPR), Single Cycle Kinetics; details: for NRAS/KRAS (ratio of KD value with respect to GDP-bound NRAS wild-type protein to KD value with respect to KRAS): class symbols
[2] = target: GDP-bound HRAS wild-type protein (Homo sapiens, UniProt P01112); assay: Binding to HRAS by surface plasmon resonance (SPR), Single Cycle Kinetics; details: for HRAS/KRAS (ratio of KD value with respect to GDP-bound HRAS wild-type protein to KD value with respect to KRAS): class symbols
[3] = GDP-bound NRAS wild-type vs GDP-bound KRAS wild-type, SPR
[4] = GDP-bound HRAS wild-type vs GDP-bound KRAS wild-type, SPR

Chain of GDP-bound HRAS wild-type protein (P01112 whole entry): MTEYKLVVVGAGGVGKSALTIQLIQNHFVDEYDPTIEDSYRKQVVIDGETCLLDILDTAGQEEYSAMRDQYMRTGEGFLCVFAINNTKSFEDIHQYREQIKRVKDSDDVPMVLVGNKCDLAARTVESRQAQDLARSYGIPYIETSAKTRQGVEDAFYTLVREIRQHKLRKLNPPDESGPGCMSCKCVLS
Chain of GDP-bound NRAS wild-type protein (P01111 whole entry): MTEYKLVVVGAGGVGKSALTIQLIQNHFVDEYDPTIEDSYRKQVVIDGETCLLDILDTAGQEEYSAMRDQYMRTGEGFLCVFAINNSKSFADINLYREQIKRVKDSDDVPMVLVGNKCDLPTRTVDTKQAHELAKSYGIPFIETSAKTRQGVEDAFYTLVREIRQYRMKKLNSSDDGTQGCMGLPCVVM

Structure (SMILES)	NRAS/KRAS (ratio of KD value for NRAS to KD value for KRAS) [1, 3]	HRAS/KRAS (ratio of KD value for HRAS to KD value for KRAS) [2, 4]	also measured
CCC[C@H]1C(=O)N[C@@H]([C@@H](C)CC)C(=O)N(C)CC(=O)N(C)[C@H]2C/C=C\CCN(C2=O)[C@@H](CC2CCC(F)(F)CC2)C(=O)N(C)CC(=O)N[C@@H](CCc2ccc(C(F)(F)F)c(OC)c2)C(=O)N2C[C@H](OCC)C[C@H]2C(=O)N(C)C2(CCC2)C(=O)N(C)[C@@H](C(CC)CC)C(=O)N(C)[C@H](C(=O)N(C)C)CC(=O)N1C [PP2345]			NRAS/KRAS (ratio of KD value with respect to NRAS to KD value with respect to KRAS) ([1]; SPR, GDP-bound NRAS wild-type vs GDP-bound KRAS wild-type): A (a compound having 10 or more and less than 20 is denoted as A); HRAS/KRAS (ratio of KD value with respect to HRAS to KD value with respect to KRAS) ([2]; SPR, GDP-bound HRAS wild-type vs GDP-bound KRAS wild-type): A (a compound having 10 or more and less than 20 is denoted as A)
CC[C@H](C)[C@@H]1NC(=O)[C@H](CC2CC2)N(C)C(=O)C[C@@H](C(=O)N(C)CC)N(C)C(=O)[C@H](C2CCCC2)N(C)C(=O)C2(CC(C)(C)C2)NC(=O)[C@@H]2C[C@@H](C)CN2C(=O)[C@H](CCc2ccc(C(F)(F)F)c(OC)c2)NC(=O)CN(C)C(=O)[C@H](Cc2ccc(C)cc2)N2CC/C=C\C[C@@H](C2=O)N(C)C(=O)CN(C)C1=O [PP1902]	A (a compound having 10 or more and less than 20 is denoted as A)	A (a compound having 10 or more and less than 20 is denoted as A)	
CCO[C@@H]1C[C@H]2C(=O)NC3(CC(C)(C)C3)C(=O)N(C)[C@@H](C3CCCC3)C(=O)N(C)[C@H](C(=O)N(C)C)CC(=O)N(C)[C@@H](CC(C)C)C(=O)N[C@@H]([C@@H](C)CC)C(=O)N(C)CC(=O)N(C)[C@H]3C/C=C\CCN(C3=O)[C@@H](Cc3ccc(C(F)(F)F)cc3)C(=O)N(C)CC(=O)N[C@@H](CCc3cc(F)c(C(F)(F)F)c(F)c3)C(=O)N2C1 [PP1650, (2S,8S,12R,14S,20S,23S,27S,30S,36S,38Z)-20-cyclopentyl-8-[2-[3,5-difluoro-4-(trifluoromethyl)phenyl]ethyl]-12-ethoxy-27-isobutyl-N,N,3′,3′,4,19,22,26,32,35-decamethyl-30-[(1S)-1-methylpropyl]-3,6,9,15,18,21,25,28,31,34,42-undecaoxo-2-[[4-(trifluoromethyl)phenyl]methyl]spiro[1,4,7,10,16,19,22,26,29,32,35-undecazatricyclo[34.5.1.0^10,14]dotetracont-38-ene-17,1′-cyclobutane]-23-carboxamide]	A (a compound having 10 or more and less than 20 is denoted as A)	A (a compound having 10 or more and less than 20 is denoted as A)	
CCO[C@@H]1C[C@H]2C(=O)NC3(CC(C)(C)C3)C(=O)N(C)[C@@H](C3CCCC3)C(=O)N(C)[C@H](C(=O)N(C)C)CC(=O)N(C)[C@@H](COC)C(=O)N[C@@H]([C@@H](C)CC)C(=O)N(C3CC3)CC(=O)N(C)[C@H]3C/C=C\CCN(C3=O)[C@@H](CC3CCCCC3)C(=O)N(C)CC(=O)N[C@@H](CCc3ccc(Cl)c(Cl)c3)C(=O)N2C1 [PP2563]			NRAS/KRAS (ratio of KD value with respect to GDP-bound NRAS wild-type protein to KD value with respect to KRAS) [1]: A (a compound having 10 or more and less than 20 is denoted as A); HRAS/KRAS (ratio of KD value with respect to GDP-bound HRAS wild-type protein to KD value with respect to KRAS) [2]: A (a compound having 10 or more and less than 20 is denoted as A)
CCO[C@@H]1C[C@H]2C(=O)NC3(CCC3)C(=O)N(C)[C@@H](C(CC)CC)C(=O)N(C)[C@H](C3CCC3)CC(=O)N(C)[C@@H](CC3CC3)C(=O)N[C@@H]([C@@H](C)CC)C(=O)N(C)CC(=O)N(C)[C@H]3C/C=C\CCN(C3=O)[C@@H](Cc3ccc(C(F)(F)F)cc3)C(=O)N(C)CC(=O)N[C@@H](CCc3cc(F)c(C(F)(F)F)c(F)c3)C(=O)N2C1 [PP1636]	A (a compound having 10 or more and less than 20 is denoted as A)	A (a compound having 10 or more and less than 20 is denoted as A)	
CCCN(C)C(=O)[C@@H]1CC(=O)N(C)[C@@H](CC)C(=O)N[C@@H]([C@@H](C)CC)C(=O)N(C)CC(=O)N(C)[C@H]2C/C=C\CCN(C2=O)[C@@H](Cc2ccc(C(F)(F)F)cc2)C(=O)N(C)CC(=O)N[C@@H](CCc2cc(F)c(C(F)(F)F)c(F)c2)C(=O)N2C[C@H](OCC3CC3)C[C@H]2C(=O)NC2(CCC2)C(=O)N(C)[C@@H](C2CCCC2)C(=O)N1C [PP2913]			NRAS/KRAS (ratio of KD value with respect to GDP-bound NRAS wild-type protein to KD value with respect to KRAS) [1]: A (a compound having 10 or more and less than 20 is denoted as A); HRAS/KRAS (ratio of KD value with respect to GDP-bound HRAS wild-type protein to KD value with respect to KRAS) [2]: A (a compound having 10 or more and less than 20 is denoted as A)
CCCN1C(=O)CN(C)C(=O)CNC(=O)[C@H]([C@@H](C)CC)NC(=O)[C@H](CC(C)C)N(C)C(=O)C[C@@H](C(=O)N2CCOCC2)N(CC)C(=O)[C@H](C2CCCC2)N(C)C(=O)C2(CCCC2)NC(=O)[C@@H]2CCCN2C(=O)[C@H](CCc2ccc(C(F)(F)F)c(Cl)c2)NC(=O)CN(C)C(=O)[C@@H]1Cc1ccc(C(F)(F)F)cc1 [PP1970] ([NMeL]IG[Sar][NPrPhe(4-CF3)][Sar][hPhe(3-Cl-4-CF3)]P[Ac5c][NMeGly(cPent)][NEtAsp]-Morpholide; lactam N-11)	B (a compound having 3 or more and less than 10 is denoted as B)	B (a compound having 3 or more and less than 10 is denoted as B)	
